Experimental data taken from PubChem BioAssay AID1963966 (Molecular Pharmacology Branch, DTP, NCI, 2024).

Tested on: 935938-334-R-J1-PDC spheroids with HUVEC/MSC, viability
Experiment: Anticancer human tumor 935938-334-R-J1-PDC patient-derived small intestine adenocarcinoma cell line growth inhibition [PI3K]
Settings: for IC50: curve of first compound; for viability, T/C: stronger effect = lower value
Summary of the method: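 Agents were dosed from a top concentration near clinical Cmax (otherwise 10 microM) in half-log decrements, alone or combined with PI3K inhibitors. The spheroids contain tumor cells plus endothelial (HUVEC) and MSC stroma; viability is measured.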

[1] = second compound 0.00316 µM, first compound 0.0316 µM
[2] = second compound 0.00316 µM, first compound 0.1 µM
[3] = second compound 0.00316 µM, first compound 0.316 µM
[4] = second compound 0.00316 µM, first compound 1 µM
[5] = second compound 0.00316 µM, first compound 3.16 µM
[6] = second compound 0.00316 µM, first compound 10 µM
[7] = second compound 0.01 µM, first compound 0.0316 µM
[8] = second compound 0.01 µM, first compound 0.1 µM
[9] = second compound 0.01 µM, first compound 0.316 µM
[10] = second compound 0.01 µM, first compound 1 µM
[11] = second compound 0.01 µM, first compound 3.16 µM
[12] = second compound 0.01 µM, first compound 10 µM
[13] = second compound 0.0316 µM, first compound 0.0316 µM
[14] = second compound 0.0316 µM, first compound 0.1 µM
[15] = second compound 0.0316 µM, first compound 0.316 µM
[16] = second compound 0.0316 µM, first compound 1 µM
[17] = second compound 0.0316 µM, first compound 3.16 µM
[18] = second compound 0.0316 µM, first compound 10 µM
[19] = second compound 0.1 µM, first compound 0.0316 µM
[20] = second compound 0.1 µM, first compound 0.1 µM
[21] = second compound 0.1 µM, first compound 0.316 µM
[22] = second compound 0.1 µM, first compound 1 µM
[23] = second compound 0.1 µM, first compound 3.16 µM
[24] = second compound 0.1 µM, first compound 10 µM
[25] = second compound 0.316 µM, first compound 0.0316 µM
[26] = second compound 0.316 µM, first compound 0.1 µM
[27] = second compound 0.316 µM, first compound 0.316 µM
[28] = second compound 0.316 µM, first compound 1 µM
[29] = second compound 0.316 µM, first compound 3.16 µM
[30] = second compound 0.316 µM, first compound 10 µM
[31] = second compound 1 µM, first compound 0.0316 µM
[32] = second compound 1 µM, first compound 0.1 µM
[33] = second compound 1 µM, first compound 0.316 µM
[34] = second compound 1 µM, first compound 1 µM
[35] = second compound 1 µM, first compound 3.16 µM
[36] = second compound 1 µM, first compound 10 µM
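Also: compound exposure lasted seven days before viability was read.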
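For viability, T/C in this document: percent of vehicle DMSO treated spheroid viability so 100% = untreated.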

With `C#Cc1c(F)ccc2cc(O)cc(-c3ncc4c(N5CC6CCC(C5)N6)nc(OCC56CCCN5CC(F)C6)nc4c3F)c12` (centres undefined) + CC(Nc1ccc2c(c1)OCCn1cc(N3C(=O)OCC3C(F)F)nc1-2)C(N)=O the IC50 (second compound 0.00316 µM) was 3.79 µM, the IC50 (second compound 0.01 µM) was 3.11 µM and the IC50 (second compound 0.0316 µM) was 1.87 µM. It also gave an IC50 (second compound 0.1 µM) of 0.922 µM, an IC50 (second compound 0.316 µM) of 0.513 µM and an IC50 (second compound 1 µM) of 0.102 µM. The viability, T/C [1] was 86.7%, the viability, T/C [2] was 88.4% and the viability, T/C [3] was 76%. For the same compound, the viability, T/C [4] was 67.9%, the viability, T/C [5] was 52.8% and the viability, T/C [6] was 36.1%. For the same compound, the viability, T/C [7] was 106%, the viability, T/C [8] was 74% and the viability, T/C [9] was 80.1%. It also gave a viability, T/C [10] of 69.1%, a viability, T/C [11] of 52% and a viability, T/C [12] of 31.1%. The viability, T/C [13] was 94.7%, the viability, T/C [14] was 80.1% and the viability, T/C [15] was 83.2%. For the same compound, the viability, T/C [16] was 61.3%, the viability, T/C [17] was 39.7% and the viability, T/C [18] was 28.8%. The viability, T/C [19] was 89.1%, the viability, T/C [20] was 84.1% and the viability, T/C [21] was 47.5%. For the same compound, the viability, T/C [22] was 56.7%, the viability, T/C [23] was 39.7% and the viability, T/C [24] was 28.2%. The viability, T/C [25] was 67.6%, the viability, T/C [26] was 71% and the viability, T/C [27] was 60.7%. It also gave a viability, T/C [28] of 34.7%, a viability, T/C [29] of 31.3% and a viability, T/C [30] of 22.8%. It also gave a viability, T/C [31] of 49.5%, a viability, T/C [32] of 51.2% and a viability, T/C [33] of 47.5%. It also gave a viability, T/C [34] of 35.2%, a viability, T/C [35] of 25% and a viability, T/C [36] of 17.2%.

For `C=CC(=O)N1CCN(c2nc(=O)n(-c3c(C)ccnc3C(C)C)c3nc(-c4c(O)cccc4F)c(F)cc23)C(C)C1` (centres undefined) + CC(Nc1ccc2c(c1)OCCn1cc(N3C(=O)OCC3C(F)F)nc1-2)C(N)=O, the IC50 (second compound 0.00316 µM) was greater than 10 µM, the IC50 (second compound 0.01 µM) was greater than 10 µM and the IC50 (second compound 0.0316 µM) was greater than 10 µM. It also gave an IC50 (second compound 0.1 µM) greater than 10 µM, an IC50 (second compound 0.316 µM) greater than 10 µM and an IC50 (second compound 1 µM) of 8.04 µM. For the same compound, the viability, T/C [1] was 101%, the viability, T/C [2] was 99.6% and the viability, T/C [3] was 103%. It also gave a viability, T/C [4] of 99.3%, a viability, T/C [5] of 91% and a viability, T/C [6] of 106%. The viability, T/C [7] was 96.9%, the viability, T/C [8] was 85% and the viability, T/C [9] was 90.4%. For the same compound, the viability, T/C [10] was 87.9%, the viability, T/C [11] was 92.5% and the viability, T/C [12] was 98.2%. It also gave a viability, T/C [13] of 134%, a viability, T/C [14] of 119% and a viability, T/C [15] of 101%. The viability, T/C [16] was 86%, the viability, T/C [17] was 85.8% and the viability, T/C [18] was 93.3%. It also gave a viability, T/C [19] of 88.4%, a viability, T/C [20] of 84.4% and a viability, T/C [21] of 98.3%. It also gave a viability, T/C [22] of 104%, a viability, T/C [23] of 89.5% and a viability, T/C [24] of 97.7%. It also gave a viability, T/C [25] of 80.9%, a viability, T/C [26] of 80.5% and a viability, T/C [27] of 71%. It also gave a viability, T/C [28] of 74.2%, a viability, T/C [29] of 72.5% and a viability, T/C [30] of 68.1%. It also gave a viability, T/C [31] of 86%, a viability, T/C [32] of 67.6% and a viability, T/C [33] of 66.3%. The viability, T/C [34] was 80.3%, the viability, T/C [35] was 86.9% and the viability, T/C [36] was 43.5%.
